One data set concerns S. Mutans. As to the kind of experiment: quantitative serial dilution test, minimal inhibitory concentration. It counts as cell-based. The following applies: Streptococcus mutans, brain-heart infusion broth, half strength, 37° C., 36 hours. The protocol: A quantitative serial dilution test may also be performed by the following procedure.
A 20 mg/ml solution of the compound to be tested is prepared in a standard brain-heart infusion broth medium which has been diluted with water to one-half standard strength. Serial dilutions are prepared by adding 1 ml of the solution to a test tube containing 9 ml of medium. Five milliliters of the resulting solution are then added to another test tube containing 5 ml of the medium. The resulting solution is then again diluted by the same procedure. Ordinarily one tenfold dilution and four twofold dilutions are made. The procedure can be continued if more dilute solutions are required. Each of the series of tubes containing solutions of the compounds to be assayed is inoculated with two drops of a heavy culture of the chosen microorganisms in the brain-heart infusion broth. The tubes are incubated at 37° C. for 36 hours and the most dilute solution showing no microbial growth is noted. The concentration of this solution is reported as the minimal inhibitory concentration (MIC).
The minimum inhibitory concentration of a number of the compounds of this invention with respect to the microorganism S. Mutans were determined by the procedure described above. Chlorhexidine diacetate a commercially successful antimicrobial was used as a control.

The subject of another data set is mice. As to the kind of experiment: acute oral toxicity in mice. It counts as in vivo. The note with it: 8 gms/Kg orally. The protocol:
Acute oral toxicity of the compounds of this invention is determined in mice by the following procedure. The mice are fasted overnight, then formed into groups of 10 for testing. The animals in each group are fed a chosen dose and the dose is varied from group to group to cover a range of doses. The groups are then observed for a period of five days and the number of dead animals in each group is noted each day.

The conditions of data set [1]: in vivo; cited from earlier work.
The conditions of data set [2]: at the prevailing pH of the mouth; cited from earlier work.
Another data set deals with dental plaque. The note with it: cited from earlier work.
The conditions of data set [3]: when swallowed; cited from earlier work.
Data set [4] can be described thus: adsorption to extracted enamel tooth surfaces, spectrophotometric. The arrangement: species or system human. The following applies: after no more was removed; fresh portions of the solutions. The protocol: Absorption of the compounds of this invention to extracted, non-carious, unprepared enamel tooth surfaces was investigated by the following procedure. Extracted human teeth, having their roots coated with wax so that only the enamel crowns were exposed, were immersed in 10 ml portions of stirred aqueous solutions of the test compound having a concentration of 10 micrograms/milliliter. After 10 minutes, the teeth were removed and the amount of test compound removed from the solution by adsorption was determined spectrophotometrically. […] The adsorption of the compounds of this invention was compared with that of chlorhexidine and found to be substantially greater. […] After no more of the test compounds was removed from the solution by adsorption, the teeth were immersed in fresh portions of the solutions.

≈ marks a conversion by molar mass, not a printed value. Counter-ions that a name gives are not always drawn.

For `N=C(NCCCCNC(=N)NC(=O)Nc1ccc(Cl)cc1)NC(=O)Nc1ccc(Cl)cc1` [1,4-bis(4-chlorophenylcarbamylguanidino)butane], in the data set on S. Mutans, the MIC was determined as 0.625 µg/mL (≈ 1.3 µM).

Regarding `N=C(NCCCCCNC(=N)NC(=O)Nc1ccc(Cl)cc1)NC(=O)Nc1ccc(Cl)cc1` [1,5-bis(4-chlorophenylcarbamylguanidino)pentane monoacetate], the MIC against S. Mutans is 0.078 µg/mL. `N=C(NC(=O)NCCCCCCNC(=O)NC(=N)Nc1ccc(Cl)cc1)Nc1ccc(Cl)cc1` [1,6-Bis(p-chlorophenylamidinoureido)hexane] yielded an MIC in the data set on S. Mutans of 2.5 µg/mL (≈ 4.93 µM).

As for `N=C(NCCCCCCNC(=N)NC(=O)Nc1ccc(Cl)cc1)NC(=O)Nc1ccc(Cl)cc1` [1,6-Bis-(p-chlorophenylcarbamylguanidino)hexane], the acute oral toxicity entry in the data set on mice is on record as “essentially atoxic”. As to `N=C(NCCCCCCNC(=N)NC(=O)Nc1ccccc1Cl)NC(=O)Nc1ccccc1Cl` [1,6-bis(2-chlorophenylcarbamylguanidino)hexane diacetate], the MIC with S. Mutans came out at 0.312 µg/mL. `CCCCC(CC)CNC(=O)NC(=N)NCCCCCCNC(=N)NC(=O)NCC(CC)CCCC` (centres unmarked) [1,6-bis(2-ethylhexylcarbamylguanidino)hexane] had an MIC against S. Mutans of 0.625 µg/mL (≈ 1.22 µM). With `N=C(NCCCCCCNC(=N)NC(=O)Nc1cccc(Cl)c1)NC(=O)Nc1cccc(Cl)c1` [1,6-bis(3-chlorophenylcarbamylguanidino)hexane diacetate], in the data set with S. Mutans, the minimal inhibitory concentration (MIC) was 0.078 µg/mL. On the same count and under the same terms, in the case of `N=C(NCCCCCCNC(=N)NC(=O)Nc1cccc(C(F)(F)F)c1)NC(=O)Nc1cccc(C(F)(F)F)c1` [1,6-bis(3-trifluoromethylphenylcarbamylguanidino)hexane dihydrochloride] it was 0.312 µg/mL; in that of `N=C(NCCCCCCNC(=N)NC(=O)Nc1ccc(Br)cc1)NC(=O)Nc1ccc(Br)cc1` [1,6-bis(4-bromophenylcarbamylguanidino)hexane diacetate], 0.312 µg/mL; in that of `N=C(NCCCCCCNC(=N)NC(=O)Nc1ccc(Cl)cc1)NC(=O)Nc1ccc(Cl)cc1` [1,6-bis(4-chlorophenylcarbamylguanidino)hexane diacetate], 0.078 µg/mL. `N=C(NCCCCCCNC(=N)NC(=O)Nc1ccc(F)cc1)NC(=O)Nc1ccc(F)cc1` [1,6-bis(4-fluorophenylcarbamylguanidino)hexane diacetate] showed an MIC against S. Mutans of 0.156 µg/mL. This MIC is about 2-fold higher than that of the compound before. In turn, `N=C(NCCCCCCNC(=N)NC(=O)Nc1ccccc1)NC(=O)Nc1ccccc1` [1,6-bis(phenylcarbamylguanidino)hexane] showed an MIC against S. Mutans of 0.625 µg/mL (≈ 1.43 µM). The compound `N=C(NCCCCCCCNC(=N)NC(=O)Nc1ccc(Cl)cc1)NC(=O)Nc1ccc(Cl)cc1` [1,7-bis(4-chlorophenylcarbamylguanidino)heptane dihydrochloride] returned an MIC against S. Mutans of 0.312 µg/mL. As to `CCCCC(CC)CNC(=N)NC(=N)NCCCCCCNC(=N)NC(=N)NCC(CC)CCCC` (centres unmarked) [alexidine, 1,6-bis(2-ethylhexylbiguanidino)hexane], in data set [1], the “local irritation of the oral mucosa and tongue” value was “produce local irritation of the oral mucosa and tongue”. For the same compound, the ionization state result in data set [2] is “almost entirely cationic”. In addition, the clinical antiplaque effect result in the data set on dental plaque is listed as “clinically effected antiplaque agents”. Moreover, the “adsorption to gastrointestinal mucosa” value in data set [3] is recorded as “adsorbed to the gastrointestinal mucosa”.

`N=C(NCCCCCCNC(=N)NC(=N)Nc1ccc(Cl)cc1)NC(=N)Nc1ccc(Cl)cc1` [chlorhexidine diacetate, reference compound] displayed an MIC against S. Mutans of 0.078 µg/mL. Consider `[H]/N=C(\N/C(=N/[H])NCCCCCCNC(=N)NC(=N)Nc1ccc(Cl)cc1)Nc1ccc(Cl)cc1` [chlorhexidine, 1,6-bis-(p-chlorophenylbiguanidino)hexane], for which, in data set [4], the “further adsorption from fresh portions of solution” value is on record as “No further adsorption”. Further, the “local irritation of the oral mucosa and tongue” value in data set [1] is “produce local irritation of the oral mucosa and tongue”. For the same compound, in data set [2], the ionization state entry was “almost entirely cationic”. The clinical antiplaque effect result in the data set on dental plaque was “clinically effected antiplaque agents”. Moreover, in data set [3], the “adsorption to gastrointestinal mucosa” value is “adsorbed to the gastrointestinal mucosa”.

The values are drawn from patent US4022962A, “Carbamylguanidine antimicrobial compounds” (Cooper Laboratories, Inc., priority 1975, dated 1977).
